Results: ChEMBL document CHEMBL1133556, “Carbonic anhydrase inhibitors: water-soluble 4-sulfamoylphenylthioureas as topical intraocular pressure-lowering agents with long-lasting effects” (J Med Chem, 2000)
≈ marks a conversion by molar mass, not a printed value. Residues, ends and D or L forms follow the SMILES beside them. *: point of attachment. X1 = NS(=O)(=O)c1ccc(NC(=S)*)cc1

Key:
Carbonic anhydrase 1 = Carbonic anhydrase 1 (Homo sapiens, UniProt P00915)
Description: Inhibitory activity against human recombinant carbonic anhydrase I

Carbonic anhydrase 2 = Carbonic anhydrase 2 (Homo sapiens, UniProt P00918)
Description: Inhibitory activity against human recombinant carbonic anhydrase II

Oryctolagus cuniculus [1] = species on record: Oryctolagus cuniculus
Description: Tested in vivo for lowering IOP (Intraocular Pressure)in Normotensive Rabbits at pH 7.0 after treatment with 50 uL, activity at 30 minutes

Oryctolagus cuniculus [2] = species on record: Oryctolagus cuniculus; remark: listed apart in the source
Carbonic anhydrase 4 = target: T1, Carbonic anhydrase 4 (Bos taurus, UniProt Q95323)
T1 sequence (Q95323 whole entry): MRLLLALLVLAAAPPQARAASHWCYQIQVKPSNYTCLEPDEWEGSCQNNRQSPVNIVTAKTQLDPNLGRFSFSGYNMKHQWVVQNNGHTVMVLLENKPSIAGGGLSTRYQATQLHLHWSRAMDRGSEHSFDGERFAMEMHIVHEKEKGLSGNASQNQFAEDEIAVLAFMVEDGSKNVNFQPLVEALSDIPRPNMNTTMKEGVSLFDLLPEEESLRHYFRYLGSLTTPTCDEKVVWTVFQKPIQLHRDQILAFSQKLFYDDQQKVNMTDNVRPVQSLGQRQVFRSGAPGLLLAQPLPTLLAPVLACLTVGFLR
Description: Inhibitory activity against bovine carbonic anhydrase IV from lung microsomes

Oryctolagus cuniculus [3] = species on record: Oryctolagus cuniculus; remark: listed apart in the source
Oryctolagus cuniculus [4] = assay: Tested in vivo for lowering IOP (Intraocular Pressure)in Normotensive Rabbits at pH 7.0 after treatment with 50 uL, activity at 90 minutes; assay type: functional
Oryctolagus cuniculus [5] = species on record: Oryctolagus cuniculus; remark: listed apart in the source
Description: Tested in vitro for transcorneal accession rates (corneal permeability) against cornea with no epithelium

[6] = octanol/water
Description: Partition coefficient (logD) (chloroform/buffer)

physchem [7] = settings: buffer, pH 7.4
Description: (§1) Solubility (in uM) in pH 7.40 at 25 degree C

Oryctolagus cuniculus [8] = species on record: Oryctolagus cuniculus; remark: listed apart in the source
Description: Tested in vitro for transcorneal accession rates (corneal permeability) against intact cornea

physchem [9] = settings: buffer, pH 7.4; remark: listed apart in the source
Description: as §1

Oryctolagus cuniculus [10] = assay: Tested in vivo for lowering IOP (Intraocular Pressure)in Normotensive Rabbits at pH 7.0 after treatment with 50 uL, activity at 60 minutes; assay type: functional
Oryctolagus cuniculus [11] = species on record: Oryctolagus cuniculus; remark: listed apart in the source
Description: Tested in vivo for lowering IOP (Intraocular Pressure)in Normotensive Rabbits at pH 6.5 after treatment with 50 uL, activity at 90 minutes

Oryctolagus cuniculus [12] = assay: Tested in vivo for lowering IOP (Intraocular Pressure)in Normotensive Rabbits at pH 6.5 after treatment with 50 uL, activity at 30 minutes; assay type: functional
Oryctolagus cuniculus [13] = assay: Tested in vivo for lowering IOP (Intraocular Pressure)in Normotensive Rabbits at pH 6.5 after treatment with 50 uL, activity at 60 minutes; assay type: functional

Carbonic anhydrase 1, sequence (P00915 whole entry): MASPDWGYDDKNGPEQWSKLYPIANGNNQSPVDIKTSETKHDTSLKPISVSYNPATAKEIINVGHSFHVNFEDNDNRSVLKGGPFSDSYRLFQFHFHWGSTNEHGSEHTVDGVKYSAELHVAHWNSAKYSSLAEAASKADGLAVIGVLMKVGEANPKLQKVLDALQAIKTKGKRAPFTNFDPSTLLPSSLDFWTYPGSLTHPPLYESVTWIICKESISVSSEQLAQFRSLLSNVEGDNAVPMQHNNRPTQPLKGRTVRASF

Ki (Carbonic anhydrase 1) [nM] | Ki (Carbonic anhydrase 2) [nM] | Ki (Carbonic anhydrase 4) [nM] | SMILES | Delta IOP (Oryctolagus cuniculus [1]) [mmHg] | Delta IOP (Oryctolagus cuniculus [2]) [mmHg] | further results
55 | 13 | 29 | NS(=O)(=O)c1ccc(N/C(S)=N\c2ccccc2C(=O)O)cc1 | 4.3 |  | Delta IOP (Oryctolagus cuniculus [4]): 0.9 mmHg; Delta IOP (Oryctolagus cuniculus [3]): 8 mmHg
54 | 12 | 36 | CC(/N=C(/S)Nc1ccc(S(N)(=O)=O)cc1)C(=O)O (configuration not stated) | 4 | 5.2 | Delta IOP (Oryctolagus cuniculus [3]): 5 mmHg
35 | 8 | 17 | NS(=O)(=O)c1ccc(NC(=S)NC(CC(=O)O)C(=O)O)cc1 (configuration not stated) | 2 | 2 | kin (Oryctolagus cuniculus [5]): 800 h⁻¹; logD [6]: 0.05; Delta IOP (Oryctolagus cuniculus [3]): 2.6 mmHg; solubility (physchem [9]): 60 mM (≈ 20.8 mg/mL); kin (Oryctolagus cuniculus [8]): 100 h⁻¹
40 | 9 | 23 | NC(=O)CCC(NC(=S)Nc1ccc(S(N)(=O)=O)cc1)C(=O)O (configuration not stated) |  |  | 
5000 | 185 |  | NS(=O)(=O)c1ccc(N=C=S)cc1 |  |  | 
59 | 16 | 40 | NS(=O)(=O)c1ccc(N/C(S)=N\c2ccc(C(=O)O)cc2)cc1 |  |  | 
115 | 15 | 61 | N=C(N)NCCCC(/N=C(\S)Nc1ccc(S(N)(=O)=O)cc1)C(=O)O (configuration not stated) | 1 | 4 | Delta IOP (Oryctolagus cuniculus [3]): 1.2 mmHg
62 | 20 | 39 | NS(=O)(=O)c1ccc(N/C(S)=N\CC(=O)O)cc1 | 3 | 0.5 | Delta IOP (Oryctolagus cuniculus [3]): 5.9 mmHg
25 | 5 | 10 | NS(=O)(=O)c1ccc(N/C(S)=N/C(CS)C(=O)O)cc1 (configuration not stated) | 0 | 0 | kin (Oryctolagus cuniculus [5]): 700 h⁻¹; logD [6]: 0.09; Delta IOP (Oryctolagus cuniculus [3]): 0 mmHg; solubility (physchem [9]): 65 mM (≈ 21.8 mg/mL); kin (Oryctolagus cuniculus [8]): 300 h⁻¹
22 | 4 | 10 | CCC(C)C(/N=C(\S)Nc1ccc(S(N)(=O)=O)cc1)C(=O)O (configuration not stated) | 2 | 0.3 | Delta IOP (Oryctolagus cuniculus [3]): 4 mmHg
50 | 15 | 32 | NS(=O)(=O)c1ccc(NC(=S)NC(CC(=O)O)C(=O)NC(CC(=O)O)C(=O)O)cc1 (configuration not stated) |  |  | 
50 | 18 | 36 | NS(=O)(=O)c1ccc(N/C(S)=N\c2cccc(C(=O)O)c2)cc1 |  |  | 
38 | 10 | 19 | NS(=O)(=O)c1ccc(NC(=S)NC(CCC(=O)O)C(=O)O)cc1 (configuration not stated) |  |  | 
47 | 11 | 35 | NS(=O)(=O)c1ccc(N/C(S)=N\CCC(=O)O)cc1 |  |  | 
59 | 10 | 27 | NS(=O)(=O)c1ccc(NC(=S)N[C@@H](CC(=O)O)C(=O)N[C@@H](CC(=O)O)C(=O)N[C@@H](CC(=O)O)C(=O)N[C@@H](CC(=O)O)C(=O)O)cc1 (X1-DDDD-OH) |  |  | 

Second part, the compound before the results:

SMILES | Ki (Carbonic anhydrase 1) [nM] | Ki (Carbonic anhydrase 2) [nM] | Ki (Carbonic anhydrase 4) [nM] | Delta IOP (Oryctolagus cuniculus [1]) [mmHg] | Delta IOP (Oryctolagus cuniculus [2]) [mmHg] | further results
CC(/N=C(/S)Nc1ccc(S(N)(=O)=O)cc1)C(=O)NC(Cc1ccccc1)C(=O)O (configuration not stated) | 23 | 4 | 13 | 0.2 | 3 | Delta IOP (Oryctolagus cuniculus [3]): 0.2 mmHg
NS(=O)(=O)c1ccc(N/C(S)=N/C(Cc2ccc(O)c(O)c2)C(=O)O)cc1 (configuration not stated) | 35 | 7 | 18 |  |  | 
NS(=O)(=O)c1nnc(NS(=O)(=O)c2ccccc2)s1 [BENZOLAMIDE] |  |  |  |  |  | kin (Oryctolagus cuniculus [5]): 40 h⁻¹; logD [6]: 0.00001; solubility (physchem [7]): 1.2 mM (≈ 0.384 mg/mL); kin (Oryctolagus cuniculus [8]): 10 h⁻¹
NS(=O)(=O)c1ccc(NC(=S)NC(Cc2cnc[nH]2)C(=O)NCC(=O)O)cc1 (configuration not stated) | 13 | 1 | 6 |  |  | 
NS(=O)(=O)c1ccc(N/C(S)=N\CCc2ccccc2)cc1 | 125 | 42 | 75 |  |  | 
NS(=O)(=O)c1ccc(N/C(S)=N/C(Cc2ccc(O)cc2)C(=O)O)cc1 (configuration not stated) | 26 | 5 | 13 |  |  | 
NS(=O)(=O)c1ccc(NC(=S)NCC(=O)NCC(=O)O)cc1 | 54 | 15 | 32 |  |  | 
CSCCC(/N=C(\S)Nc1ccc(S(N)(=O)=O)cc1)C(=O)O (configuration not stated) | 27 | 4 | 13 |  |  | 
NS(=O)(=O)c1ccc(NC(S)=NC(Cc2c[nH]cn2)C(=O)NC(Cc2ccccc2)C(=O)O)cc1 (configuration not stated) | 21 | 3 | 9 |  |  | 
NS(=O)(=O)c1ccc(N/C(S)=N/C(Cc2c[nH]c3ccccc23)C(=O)O)cc1 (configuration not stated) | 47 | 11 | 24 |  |  | 
NS(=O)(=O)c1ccc(N/C(S)=N/CCC(=O)NC(Cc2c[nH]cn2)C(=O)O)cc1 (configuration not stated) | 23 | 3 | 10 | 1 | 4 | kin (Oryctolagus cuniculus [5]): 5000 h⁻¹; logD [6]: 0.725; solubility (physchem [7]): 52 mM (≈ 22.9 mg/mL); Delta IOP (Oryctolagus cuniculus [3]): 1.2 mmHg; kin (Oryctolagus cuniculus [8]): 2200 h⁻¹
NS(=O)(=O)c1ccc(N/C(S)=N/C(C(=O)O)C(O)c2ccccc2)cc1 (configuration not stated) | 24 | 2 | 9 | 9 | 9.6 | kin (Oryctolagus cuniculus [5]): 12300 h⁻¹; logD [6]: 2.314; solubility (physchem [7]): 48 mM (≈ 19 mg/mL); Delta IOP (Oryctolagus cuniculus [3]): 10 mmHg; kin (Oryctolagus cuniculus [8]): 4900 h⁻¹
NS(=O)(=O)c1ccc(N/C(S)=N/C(C(=O)O)c2ccccc2)cc1 (configuration not stated) | 40 | 6 | 15 |  |  | kin (Oryctolagus cuniculus [5]): 14300 h⁻¹; logD [6]: 3.652; solubility (physchem [9]): 54 mM (≈ 19.7 mg/mL); kin (Oryctolagus cuniculus [8]): 5900 h⁻¹
CC(=O)/N=c1/sc(S(N)(=O)=O)nn1C [METHAZOLAMIDE] |  |  |  |  |  | kin (Oryctolagus cuniculus [5]): 13000 h⁻¹; logD [6]: 0.06; kin (Oryctolagus cuniculus [8]): 1900 h⁻¹
CC(C)C(/N=C(\S)Nc1ccc(S(N)(=O)=O)cc1)C(=O)O (configuration not stated) | 23 | 5 | 13 |  |  | 
CC(O)C(NC(=S)Nc1ccc(S(N)(=O)=O)cc1)C(=O)O (configuration not stated) | 30 | 4 | 16 |  |  | 
CC(C)CC(/N=C(\S)Nc1ccc(S(N)(=O)=O)cc1)C(=O)NCC(=O)O (configuration not stated) | 20 | 5 | 13 |  |  | 
CC(C)CC(/N=C(\S)Nc1ccc(S(N)(=O)=O)cc1)C(=O)O (configuration not stated) | 21 | 5 | 12 | 5.2 | 6 | Delta IOP (Oryctolagus cuniculus [10]): 6.3 mmHg
CCOc1ccc2nc(S(N)(=O)=O)sc2c1 [ETHOXZOLAMIDE] |  |  |  |  |  | solubility (physchem [7]): 0.04 mM (≈ 0.0103 mg/mL)
NS(=O)(=O)c1ccc(NC(=S)N2CCCC2C(=O)O)cc1 (configuration not stated) | 110 | 25 | 68 | 0 | 1 | Delta IOP (Oryctolagus cuniculus [3]): 1 mmHg
NS(=O)(=O)c1ccc(N/C(S)=N\CCc2c[nH]cn2)cc1 | 92 | 33 | 56 |  |  | Delta IOP (Oryctolagus cuniculus [11]): 0 mmHg; Delta IOP (Oryctolagus cuniculus [12]): 3 mmHg; Delta IOP (Oryctolagus cuniculus [13]): 0.3 mmHg
NS(=O)(=O)c1ccc(N/C(S)=N\Cc2ccccn2)cc1 | 135 | 45 | 76 |  |  | Delta IOP (Oryctolagus cuniculus [11]): 0.6 mmHg
NS(=O)(=O)c1ccc(N/C(S)=N/C(Cc2ccccc2)C(=O)O)cc1 (configuration not stated) | 30 | 6 | 13 | 4 | 3 | Delta IOP (Oryctolagus cuniculus [3]): 4.1 mmHg
NS(=O)(=O)c1ccc(N/C(S)=N\CCc2ccccn2)cc1 | 124 | 40 | 77 |  |  | 
NS(=O)(=O)c1ccc(N/C(S)=N/C(Cc2c[nH]cn2)C(=O)O)cc1 (configuration not stated) | 32 | 5 | 15 | 4 | 4 | Delta IOP (Oryctolagus cuniculus [10]): 4.6 mmHg
NS(=O)(=O)c1ccc(NC(=S)N2CCC[C@H]2C(=O)NCC(=O)NCC(=O)O)cc1 | 20 | 3 | 11 |  |  | 
